Measurements: PMC10599993, “The PTPN2/PTPN1 inhibitor ABBV-CLS-484 unleashes potent anti-tumour immunity” (Nature, 2023)

Assays:
Experiment in all cases: biochemical
Parameters in all cases: Safety pharmacology off-target panel at Eurofins, radioligand binding with agonist or antagonist radioligand (Supplementary Table 2)
5-HT4e = target: T1, 5-HT4e (Homo sapiens, UniProt Q13639); conditions: antagonist radioligand
T1 construct: gene HTR4; 5-HT4e isoform
Protocol: (§1) Wide-range phosphatase, kinase and preclinical safety pharmacology off-target activity screens were conducted at Eurofins (Extended Data Table 5 and Supplementary Tables 1 and 2). A small phosphatase panel was developed at AbbVie to assess IC50 values on select phosphatases. The following enzymes used in the phosphatase selectivity panel were purchased from Eurofins: PTPN1 (PTP1B; 14–621), PTPN2 (TC-PTP; 14–646), PTPN9 (14–592), SHP1 (14–591) and SHP2 (14–622). The catalytic activity of the phosphatase was monitored using the small-molecule substrate DiFMUP (ThermoFisher) in a fluorescence assay format. In brief, the phosphatase reactions were performed at room temperature in the following assay buffer: 50 mM HEPES, pH 7.2, 100 mM NaCl, 1 mM EDTA, 0.005% Tween-20 and 5 mM TCEP. Each phosphatase was incubated with increasing concentrations of AC484 for 5 min, after which the substrate DiFMUP was added and incubated at 25 °C for 30 min. The final concentration of the enzyme and substrate was maintained at 0.5 nM and 5 μM, respectively, in all the assays. The reaction was then quenched by the addition of a 100 μM solution of bpV(Phen) (Enzo Life Sciences). The fluorescence signal was monitored using an Envision microplate reader (Perkin-Elmer) using excitation and emission wavelengths of 340 nm and 450 nm, respectively. The dose–response curves for the inhibitors were analysed using normalized IC50 regression curve fitting with control-based normalization. Supplementary file 41586_2023_6575_MOESM4_ESM.xlsx: Supplementary Table 2 AC484 receptor selectivity screen.

CGRP = target: T2, CGRP (Homo sapiens, UniProt O60894+Q16602); conditions: agonist radioligand
T2 construct: gene RAMP1
T2 sequence (O60894 whole entry): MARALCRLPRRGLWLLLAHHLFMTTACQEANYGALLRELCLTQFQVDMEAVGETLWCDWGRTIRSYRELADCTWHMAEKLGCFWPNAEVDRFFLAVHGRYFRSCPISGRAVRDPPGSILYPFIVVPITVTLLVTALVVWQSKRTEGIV
T2 sequence (Q16602 whole entry): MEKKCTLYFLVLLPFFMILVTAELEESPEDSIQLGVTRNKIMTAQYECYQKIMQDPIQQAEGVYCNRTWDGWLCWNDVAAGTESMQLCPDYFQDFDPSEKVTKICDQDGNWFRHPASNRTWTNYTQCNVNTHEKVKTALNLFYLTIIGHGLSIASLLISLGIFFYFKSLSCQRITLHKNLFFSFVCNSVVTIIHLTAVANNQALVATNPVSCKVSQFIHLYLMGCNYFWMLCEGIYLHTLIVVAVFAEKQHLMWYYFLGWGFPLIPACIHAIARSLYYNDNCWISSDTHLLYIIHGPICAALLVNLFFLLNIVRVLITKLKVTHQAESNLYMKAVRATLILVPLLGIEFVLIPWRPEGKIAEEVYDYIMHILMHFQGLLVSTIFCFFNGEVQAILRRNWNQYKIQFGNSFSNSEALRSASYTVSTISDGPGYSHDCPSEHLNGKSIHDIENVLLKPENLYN
Protocol: as §1

ETA = target: T3, ETA (Homo sapiens, UniProt P25101); conditions: agonist radioligand
T3 construct: gene EDNRA
T3 sequence (P25101 whole entry): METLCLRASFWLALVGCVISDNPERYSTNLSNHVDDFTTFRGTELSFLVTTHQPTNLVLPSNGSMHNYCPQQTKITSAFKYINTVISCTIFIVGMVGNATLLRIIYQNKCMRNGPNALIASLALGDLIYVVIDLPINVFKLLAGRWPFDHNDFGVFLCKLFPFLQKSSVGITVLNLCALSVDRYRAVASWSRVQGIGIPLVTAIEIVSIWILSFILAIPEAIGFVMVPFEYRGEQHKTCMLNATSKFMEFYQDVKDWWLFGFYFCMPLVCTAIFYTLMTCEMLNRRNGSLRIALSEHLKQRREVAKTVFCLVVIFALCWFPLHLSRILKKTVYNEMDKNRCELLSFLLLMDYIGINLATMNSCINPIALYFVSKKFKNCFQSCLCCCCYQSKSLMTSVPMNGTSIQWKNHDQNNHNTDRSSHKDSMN
Protocol: as §1

NK2 = target: T4, NK2 (Homo sapiens, UniProt P21452); conditions: agonist radioligand
T4 construct: gene TACR2
Protocol: as §1

PPARg = PPARg (Homo sapiens, UniProt P37231); conditions: agonist radioligand
PPARg, sequence (P37231 whole entry): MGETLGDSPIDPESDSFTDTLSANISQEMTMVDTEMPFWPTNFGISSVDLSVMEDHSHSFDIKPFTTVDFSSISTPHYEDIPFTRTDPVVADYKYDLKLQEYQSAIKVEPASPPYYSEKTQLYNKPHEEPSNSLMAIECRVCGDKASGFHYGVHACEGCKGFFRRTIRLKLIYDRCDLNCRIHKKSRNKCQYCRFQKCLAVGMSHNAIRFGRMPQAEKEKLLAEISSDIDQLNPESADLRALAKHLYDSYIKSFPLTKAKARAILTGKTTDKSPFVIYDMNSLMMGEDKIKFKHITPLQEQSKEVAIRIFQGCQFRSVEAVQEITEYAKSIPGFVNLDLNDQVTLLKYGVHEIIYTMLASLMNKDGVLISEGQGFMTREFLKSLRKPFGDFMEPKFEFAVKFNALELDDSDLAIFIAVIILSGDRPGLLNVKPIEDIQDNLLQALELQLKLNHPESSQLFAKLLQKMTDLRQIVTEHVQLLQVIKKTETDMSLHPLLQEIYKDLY
Protocol: as §1

5-HT2B = target: T5, 5-HT2B (Homo sapiens, UniProt P41595); conditions: agonist radioligand
T5 construct: gene HTR2B
T5 sequence (P41595 whole entry): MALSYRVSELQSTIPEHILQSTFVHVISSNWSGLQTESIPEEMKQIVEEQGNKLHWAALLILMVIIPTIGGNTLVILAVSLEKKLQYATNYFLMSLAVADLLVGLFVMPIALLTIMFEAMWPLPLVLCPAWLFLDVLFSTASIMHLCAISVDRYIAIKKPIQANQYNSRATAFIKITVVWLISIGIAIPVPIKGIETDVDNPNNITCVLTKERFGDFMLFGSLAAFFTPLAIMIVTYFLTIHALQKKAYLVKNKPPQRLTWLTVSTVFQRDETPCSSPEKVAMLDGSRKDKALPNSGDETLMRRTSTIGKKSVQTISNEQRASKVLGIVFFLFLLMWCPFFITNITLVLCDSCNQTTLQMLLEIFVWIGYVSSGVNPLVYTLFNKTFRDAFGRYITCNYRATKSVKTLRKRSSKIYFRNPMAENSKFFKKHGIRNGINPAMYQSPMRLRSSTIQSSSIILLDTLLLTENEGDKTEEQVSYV
Protocol: as §1

a2B (h) [1] = target: T6, a2B (h) (Homo sapiens, UniProt P18089); conditions: antagonist radioligand
T6 construct: gene ADRA2B
Protocol: as §1

5-HT3 = target: T7, 5-HT3 (Homo sapiens, UniProt P46098); conditions: antagonist radioligand
T7 construct: gene HTR3A
T7 sequence (P46098 whole entry): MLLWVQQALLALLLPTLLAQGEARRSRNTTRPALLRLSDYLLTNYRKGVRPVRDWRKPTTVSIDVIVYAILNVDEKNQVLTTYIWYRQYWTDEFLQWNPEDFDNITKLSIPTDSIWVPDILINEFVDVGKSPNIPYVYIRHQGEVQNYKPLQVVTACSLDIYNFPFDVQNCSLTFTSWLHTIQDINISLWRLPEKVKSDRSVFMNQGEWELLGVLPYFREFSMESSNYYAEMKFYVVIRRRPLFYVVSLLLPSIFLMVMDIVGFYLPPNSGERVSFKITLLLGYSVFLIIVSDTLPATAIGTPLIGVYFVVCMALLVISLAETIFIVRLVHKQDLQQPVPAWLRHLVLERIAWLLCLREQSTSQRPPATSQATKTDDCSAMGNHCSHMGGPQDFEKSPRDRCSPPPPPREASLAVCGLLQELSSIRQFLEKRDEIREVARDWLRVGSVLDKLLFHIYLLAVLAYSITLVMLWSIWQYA
Protocol: as §1

A2A (h) = target: T8, A2A (h) (Homo sapiens, UniProt P29274); conditions: agonist radioligand
T8 construct: gene ADORA2A
Protocol: as §1

5-HT2A = target: T9, 5-HT2A (Homo sapiens, UniProt P28223); conditions: antagonist radioligand
T9 construct: gene HTR2A
T9 sequence (P28223 whole entry): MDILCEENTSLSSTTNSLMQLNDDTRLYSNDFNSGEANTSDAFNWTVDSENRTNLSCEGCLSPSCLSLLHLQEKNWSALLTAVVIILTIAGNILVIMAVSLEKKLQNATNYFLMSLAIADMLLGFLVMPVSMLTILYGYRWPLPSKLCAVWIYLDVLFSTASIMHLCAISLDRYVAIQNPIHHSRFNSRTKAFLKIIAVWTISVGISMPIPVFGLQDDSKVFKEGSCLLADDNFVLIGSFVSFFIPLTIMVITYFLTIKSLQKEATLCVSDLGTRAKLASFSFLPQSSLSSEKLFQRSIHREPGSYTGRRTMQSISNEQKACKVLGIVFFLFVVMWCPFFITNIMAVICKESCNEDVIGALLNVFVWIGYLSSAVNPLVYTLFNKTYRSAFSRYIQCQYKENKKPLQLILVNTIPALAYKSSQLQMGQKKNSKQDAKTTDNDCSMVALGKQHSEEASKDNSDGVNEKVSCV
Protocol: as §1

AT1 (h) = target: T10, AT1 (h) (Homo sapiens, UniProt P30556); conditions: antagonist radioligand
T10 construct: gene AGTR1
T10 sequence (P30556 whole entry): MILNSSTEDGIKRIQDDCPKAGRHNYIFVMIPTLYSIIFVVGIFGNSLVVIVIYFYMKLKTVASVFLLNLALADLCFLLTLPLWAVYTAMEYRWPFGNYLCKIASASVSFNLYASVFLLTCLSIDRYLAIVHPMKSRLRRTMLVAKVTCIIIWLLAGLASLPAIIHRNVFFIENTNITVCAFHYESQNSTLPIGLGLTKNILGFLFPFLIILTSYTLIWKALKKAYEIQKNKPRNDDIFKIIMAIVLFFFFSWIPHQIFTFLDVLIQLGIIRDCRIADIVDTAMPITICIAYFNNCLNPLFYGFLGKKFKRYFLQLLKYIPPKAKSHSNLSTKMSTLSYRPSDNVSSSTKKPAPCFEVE
Protocol: as §1

Estrogen ER alpha = target: T11, Estrogen ER alpha (Homo sapiens, UniProt P03372); conditions: agonist radioligand
T11 construct: gene ESR1
Protocol: as §1

M1 = target: T12, M1 (Homo sapiens, UniProt P11229); conditions: antagonist radioligand
T12 construct: gene CHRM1
Protocol: as §1

A3 (h) = target: T13, A3 (h) (Homo sapiens, UniProt P0DMS8); conditions: agonist radioligand
T13 construct: gene ADORA3
T13 sequence (P0DMS8 whole entry): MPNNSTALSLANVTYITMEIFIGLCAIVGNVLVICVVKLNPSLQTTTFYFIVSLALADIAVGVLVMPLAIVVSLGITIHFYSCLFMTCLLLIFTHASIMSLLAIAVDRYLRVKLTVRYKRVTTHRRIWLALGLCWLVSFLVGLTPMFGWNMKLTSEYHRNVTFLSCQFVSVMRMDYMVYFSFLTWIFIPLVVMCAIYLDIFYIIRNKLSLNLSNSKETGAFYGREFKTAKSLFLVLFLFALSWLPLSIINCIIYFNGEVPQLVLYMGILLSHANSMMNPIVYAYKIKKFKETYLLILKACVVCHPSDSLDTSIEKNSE
Protocol: as §1

VPAC1 (VIP1) = target: T14, VPAC1 (VIP1) (Homo sapiens, UniProt P32241); conditions: agonist radioligand
T14 construct: gene VIPR1
T14 sequence (P32241 whole entry): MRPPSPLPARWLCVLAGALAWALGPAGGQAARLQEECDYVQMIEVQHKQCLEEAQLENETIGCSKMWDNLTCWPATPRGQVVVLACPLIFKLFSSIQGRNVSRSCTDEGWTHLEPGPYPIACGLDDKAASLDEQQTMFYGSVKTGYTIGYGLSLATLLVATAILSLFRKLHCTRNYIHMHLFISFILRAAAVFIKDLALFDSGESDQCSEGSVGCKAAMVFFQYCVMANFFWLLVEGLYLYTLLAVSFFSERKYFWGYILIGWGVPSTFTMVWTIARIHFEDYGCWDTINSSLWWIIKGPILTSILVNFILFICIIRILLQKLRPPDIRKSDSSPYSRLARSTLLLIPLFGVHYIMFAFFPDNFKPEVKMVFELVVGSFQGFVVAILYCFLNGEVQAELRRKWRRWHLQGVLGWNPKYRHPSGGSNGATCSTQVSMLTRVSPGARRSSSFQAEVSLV
Protocol: as §1

A1 (h) = target: T15, A1 (h) (Homo sapiens, UniProt P30542); conditions: antagonist radioligand
T15 construct: gene ADORA1
T15 sequence (P30542 whole entry): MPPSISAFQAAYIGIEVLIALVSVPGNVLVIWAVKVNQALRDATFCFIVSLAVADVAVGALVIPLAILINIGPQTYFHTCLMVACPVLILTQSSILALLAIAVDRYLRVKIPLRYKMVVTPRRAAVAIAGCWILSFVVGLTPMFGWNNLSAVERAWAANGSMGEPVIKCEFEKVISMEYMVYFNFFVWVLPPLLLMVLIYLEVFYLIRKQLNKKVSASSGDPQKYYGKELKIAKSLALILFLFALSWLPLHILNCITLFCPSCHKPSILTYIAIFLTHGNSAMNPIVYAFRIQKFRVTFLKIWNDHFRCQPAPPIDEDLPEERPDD
Protocol: as §1

CB1 = target: T16, CB1 (Homo sapiens, UniProt P21554); conditions: agonist radioligand
T16 construct: gene CNR1
Protocol: as §1

A2B (h) [2] = target: T17, A2B (h) (Homo sapiens, UniProt P29275); conditions: antagonist radioligand
T17 construct: gene ADORA2B
T17 sequence (P29275 whole entry): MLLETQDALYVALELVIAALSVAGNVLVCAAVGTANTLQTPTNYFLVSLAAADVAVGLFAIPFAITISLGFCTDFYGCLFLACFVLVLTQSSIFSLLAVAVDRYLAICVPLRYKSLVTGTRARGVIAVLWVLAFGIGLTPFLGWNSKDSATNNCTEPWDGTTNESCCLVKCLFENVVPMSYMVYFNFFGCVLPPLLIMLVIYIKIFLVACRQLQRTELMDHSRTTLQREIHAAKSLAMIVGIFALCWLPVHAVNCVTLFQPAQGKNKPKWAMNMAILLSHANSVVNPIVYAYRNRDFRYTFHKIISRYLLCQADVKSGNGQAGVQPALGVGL
Protocol: as §1

M2 = target: T18, M2 (Homo sapiens, UniProt P08172); conditions: antagonist radioligand
T18 construct: gene CHRM2
Protocol: as §1

Measured: AC50

CC(C)CCN[C@@H]1CCc2cc(O)c(N3CC(=O)NS3(=O)=O)c(F)c2C1 [AC484, ABBV-CLS-484]
> 0.01 mM: all assays above
